For assay [1], the target named is T1, phosphorylated BTK Y223 in NIH/3T3 BTK WT cells (Homo sapiens, UniProt Q06187).
T1 construct: expressed in transfected cells; host or cells: NIH/3T3 (mouse fibroblasts) engineered to express BTK WT
The assay can be described thus: Phosphor-BTK(Y223) assay, NIH/3T3 BTK WT cells. The assay is classed as cell-based. To be noted: phosphorylated BTK Y223, NIH/3T3 BTK WT cells; read-out: NIH/3T3 BTK-WT pBTK IC50. On the procedure:
(§1) The purpose of this assay is to simply, quickly and directly detect the endogenous level of BTK in cells. The specific assay steps are as follows: Day 1: NIH/3T3 BTK WT cells (7.5 k/well) and NIH/3T3 BTK C481S cells (10 k/well) were plated in 96-well plates, respectively, and cultured overnight at 37° C. and 5% CO2.
(§2) • 1. A 3-fold final concentration gradient dilution of the compound was prepared, and 50 μL was added to 100 μL of cell culture; 0.5% DMSO was used as a positive control for cell growth. • 2. The plate was incubated at 37° C., 5% CO2 for 0.5 h. • 3. Na3VO4 with a final concentration of 1 mM was added, and incubated at 37° C. and 5% CO2 for 2 hours. • 4. During the incubation, the following reagents were prepared: 1× added lysis buffer: 3 vol ddH2O+1 vol 4× lysis buffer+100× blocking reagent. p-BTK (Y223) cryptate-antibody and p-BTK (Y223) d2-antibody working solutions: 1 volume of each cryopreserved antibody (stored at −20° C.) was added to 19 times volumes of assay buffer (stored at 4° C.). • 5. After the incubation, the medium was removed and 50 μL of 1× added lysis buffer was added; The mixture was centrifuged at 500 rpm for 30 min at room temperature. • 6. The lysate was mixed well and 16 μL was transferred to a 384-well plate; 1× added lysis buffer was used as a blank control. • 7. 4 μL of pre-mixed working solutions of the two antibodies (cryptate Ab:d2 Ab=1:1) were added and the plate was sealed. • 8. The plate was incubated overnight at room temperature.
(§3) Biotek cytation3.0 microplate reader was used to read the plate at 665 nm and 620 nm, and the ratio of 665/620 nm per well was calculated.
(§4) IC50 was calculated using GraphPad Prism 7.0 software.
(§5) The following nonlinear fitting formula was used to obtain the phosphorylated BTK Y223 IC50 (half phosphorylation inhibitory concentration) of the compounds:
(§6) [formula] • X: Compound concentration log value • Y: Inhibition rate (% inhibition)
(§7) The formula for calculating cell phosphorylation inhibition rate (% inhibition rate) was: […]

Assay [2] has as its target T2, phosphorylated BTK Y223 in NIH/3T3 BTK C481S cells (Homo sapiens, UniProt Q06187, C481S).
T2 construct: expressed in transfected cells; host or cells: NIH/3T3 (mouse fibroblasts) engineered to express BTK C481S
Nature of the assay: Phosphor-BTK(Y223) assay, NIH/3T3 BTK C481S cells. It counts as cell-based. The note with it: phosphorylated BTK Y223, NIH/3T3 BTK C481S cells; read-out: NIH/3T3 BTK-C481S pBTK IC50. On the procedure: as §1, §2, §3, §4, §5, §6, §7

pIC50: −log10 of the molar value.

T1 sequence (Q06187 whole entry): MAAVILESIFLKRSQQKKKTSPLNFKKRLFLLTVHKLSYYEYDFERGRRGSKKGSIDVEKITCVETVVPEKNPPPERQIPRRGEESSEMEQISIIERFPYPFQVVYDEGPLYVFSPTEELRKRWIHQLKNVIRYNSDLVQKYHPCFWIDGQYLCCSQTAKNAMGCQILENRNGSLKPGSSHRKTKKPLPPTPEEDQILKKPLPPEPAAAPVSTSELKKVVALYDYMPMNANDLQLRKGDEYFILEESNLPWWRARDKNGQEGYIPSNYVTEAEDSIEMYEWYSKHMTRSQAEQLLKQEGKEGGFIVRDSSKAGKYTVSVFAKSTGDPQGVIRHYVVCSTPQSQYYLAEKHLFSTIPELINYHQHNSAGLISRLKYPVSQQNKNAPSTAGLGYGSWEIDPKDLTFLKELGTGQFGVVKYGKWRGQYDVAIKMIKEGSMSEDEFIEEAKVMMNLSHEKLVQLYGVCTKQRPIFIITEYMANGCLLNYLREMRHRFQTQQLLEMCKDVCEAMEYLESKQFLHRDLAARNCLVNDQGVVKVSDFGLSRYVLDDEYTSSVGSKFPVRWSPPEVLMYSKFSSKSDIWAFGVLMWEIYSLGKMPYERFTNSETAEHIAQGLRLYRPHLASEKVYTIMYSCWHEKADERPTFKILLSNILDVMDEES
T2 sequence (Q06187 whole entry C481S): as the sequence (Q06187 whole entry) above, with C481S counted along it

As for `COc1ccc(F)cc1C(=O)NCc1ccc(-c2nn([C@H]3CCC[C@H](O)C3)c3ncnc(N)c23)cc1` (racemic) [Example 9, trans-N-(4-(4-amino-1-(3-hydroxycyclohexanyl)-1H-pyrazolo[3,4-d]pyrimidin-3-yl)benzyl)-5-fluoro-2-methoxybenzamide], the pIC50 in assay [1] and in assay [2] was ≥ 7.60 each time. Take `COc1ccc(F)cc1C(=O)NCc1ccc(-c2nn(C3CCCC(O)C3)c(N)c2C(N)=O)cc1` (single isomer, unassigned) [Example 2, 5-amino-3-(4-((5-fluoro-2-methoxybenzoylamino)methyl)phenyl)-1-(3-hydroxycyclohexyl)-1H-pyrazole-4-carboxamide]: the pIC50 in assay [1] and in assay [2] was 7.00 to 7.30 in each case.

For `COc1ccc(F)cc1C(=O)NCc1ccc(-c2nn(C3CCCC(O)C3)c(N)c2C(N)=O)cc1` (single isomer, unassigned) [Example 3, 5-amino-3-(4-((5-fluoro-2-methoxybenzamido)methyl)phenyl)-1-(3-hydroxycyclohexyl)-1H-pyrazole-4-carboxamide], the pIC50 in assay [1] and in assay [2] was 6.30 to 7.00 throughout. With `COc1ccc(F)cc1C(=O)NCc1ccc(-c2nn(C3CCC(CO)OC3)c(N)c2C(N)=O)cc1` (single isomer, unassigned) [Example 13, 5-amino-3-(4-((5-fluoro-2-methoxybenzamido)methyl)phenyl)-1-(6-(hydroxymethyl)tetrahydro-2H-pyran-3-yl)-1H-pyrazole-4-carboxamide], the pIC50 was 7.00 to 7.30 in assay [1] and 6.30 to 7.00 in assay [2].

As to `COc1ccc(F)cc1C(=O)NCc1ccc(-c2nn(C3CCC(CO)OC3)c(N)c2C(N)=O)cc1` (single isomer, unassigned) [Example 14, 5-amino-3-(4-((5-fluoro-2-methoxybenzamido)methyl)phenyl)-1-(6-(hydroxymethyl)tetrahydro-2H-pyran-3-yl)-1H-pyrazole-4-carboxamide], the pIC50 in assay [1] is 7.00 to 7.30; in assay [2], 6.30 to 7.00.

As for `COc1ccc(F)cc1C(=O)NCc1ccc(-c2nn(C3CCC(CO)OC3)c3ncnc(N)c23)cc1` (single isomer, unassigned) [Example 16, N-(4-(4-amino-1-(6-(hydroxymethyl)tetrahydro-2H-pyran-3-yl)-1H-pyrazolo[3,4-d]pyrimidin-3-yl)benzyl)-5-fluoro-2-methoxybenzamide], the values for the pIC50 in assay [1] and in assay [2] were 7.00 to 7.30 and 6.30 to 7.00, respectively. Regarding `COc1ccc(F)cc1C(=O)NCc1ccc(-c2nn(C3CCC(CO)OC3)c3ncnc(N)c23)cc1` (single isomer, unassigned) [Example 17, N-(4-(4-amino-1-(6-(hydroxymethyl)tetrahydro-2H-pyran-3-yl)-1H-pyrazolo[3,4-d]pyrimidin-3-yl)benzyl)-5-fluoro-2-methoxybenzamide], the pIC50 in assay [1] and in assay [2] was 6.30 to 7.00 throughout. As for `COc1ccc(F)cc1C(=O)NCc1ccc(-c2nn(C3CCC(CO)OC3)c3ncnc(N)c23)cc1` (single isomer, unassigned) [Example 19, N-(4-(4-amino-1-(6-(hydroxymethyl)tetrahydro-2H-pyran-3-yl)-1H-pyrazolo[3,4-d]pyrimidin-3-yl)benzyl)-5-fluoro-2-methoxybenzamide], the pIC50 in assay [1] is 7.30 to 7.60; in assay [2] it was 7.00 to 7.30. For `COc1ccc(F)cc1C(=O)NCc1ccc(-c2nc(C3CCCC(O)C3)n3ccnc(N)c23)cc1` (single isomer, unassigned) [Example 21, N-(4-(8-amino-3-(3-hydroxycyclohexanyl)imidazo[1,5-a]pyrazin-1-yl)benzyl)-5-fluoro-2-methoxybenzamide] the same measures were 7.30 to 7.60 and 7.00 to 7.30. In the case of `COc1ccc(F)cc1C(=O)NCc1ccc(-c2nn(C3CCCC(C)(O)C3)c3ncnc(N)c23)cc1` (single isomer, unassigned) [Example 23, N-(4-(4-amino-1-(3-hydroxy-3-methylcyclohexanyl)-1H-pyrazolo[3,4-d]pyrimidin-3-yl)benzyl)-5-fluoro-2-methoxybenzamide], the pIC50 in assay [1] and in assay [2] was 7.30 to 7.60 in each case. For `COc1ccc(F)cc1C(=O)NCc1ccc(-c2nn(C3CCCC(C)(O)C3)c3ncnc(N)c23)cc1` (single isomer, unassigned) [Example 24, N-(4-(4-amino-1-(3-hydroxy-3-methylcyclohexanyl)-1H-pyrazolo[3,4-d]pyrimidin-3-yl)benzyl)-5-fluoro-2-methoxybenzamide], the pIC50 is ≥ 7.60 in assay [1] and 7.30 to 7.60 in assay [2]. Turning to `COc1ccc(F)cc1C(=O)NCc1ccc(-c2nn(C3CCCC(C)(O)C3)c3ncnc(N)c23)cc1` (single isomer, unassigned) [Example 25, N-(4-(4-amino-1-(3-hydroxy-3-methylcyclohexanyl)-1H-pyrazolo[3,4-d]pyrimidin-3-yl)benzyl)-5-fluoro-2-methoxybenzamide], the pIC50 in assay [1] and in assay [2] was 7.30 to 7.60 in each case.

Turning to `COc1ccc(F)cc1C(=O)NCc1ccc(-c2nn(C3CCCC(C)(O)C3)c3ncnc(N)c23)cc1` (single isomer, unassigned) [Example 26, N-(4-(4-amino-1-(3-hydroxy-3-methylcyclohexanyl)-1H-pyrazolo[3,4-d]pyrimidin-3-yl)benzyl)-5-fluoro-2-methoxybenzamide], the pIC50 was 7.30 to 7.60 in assay [1] and 7.00 to 7.30 in assay [2].

As to `COc1ccc(F)cc1C(=O)NCc1ccc(-c2nn(C3CCCC(C)(O)C3)c3ncnc(N)c23)cc1` (single isomer, unassigned) [Example 27, N-(4-(4-amino-1-(3-hydroxy-3-methylcyclohexanyl)-1H-pyrazolo[3,4-d]pyrimidin-3-yl)benzyl)-5-fluoro-2-methoxybenzamide], the pIC50 is ≥ 7.60 in assay [1] and 7.30 to 7.60 in assay [2]. In the case of `COc1ccc(F)cc1C(=O)NCc1ccc(-c2nn(C3CCCC(C)(O)C3)c3ncnc(N)c23)cc1` (single isomer, unassigned) [Example 28, N-(4-(4-amino-1-(3-hydroxy-3-methylcyclohexanyl)-1H-pyrazolo[3,4-d]pyrimidin-3-yl)benzyl)-5-fluoro-2-methoxybenzamide], the pIC50 in assay [1] is ≥ 7.60; in assay [2], 7.30 to 7.60.

Consider `COc1ccc(F)cc1C(=O)NCc1ccc(-c2nn([C@@H]3C=C[C@@H](O)C3)c3ncnc(N)c23)cc1` (single isomer, unassigned) [Example 37, trans-N-(4-(4-amino-1-(4-hydroxycyclopent-2-en-1-yl)-1H-pyrazolo[3,4-d]pyrimidin-3-yl)benzyl)-5-fluoro-2-methoxybenzamide], for which the pIC50 in assay [1] is 7.30 to 7.60; in assay [2], 7.00 to 7.30. The corresponding values for `COc1ccc(F)cc1C(=O)NCc1ccc(-c2nn([C@@H]3C=C[C@@H](O)C3)c3ncnc(N)c23)cc1` (single isomer, unassigned) [Example 38, trans-N-(4-(4-amino-1-(4-hydroxycyclopent-2-en-1-yl)-1H-pyrazolo[3,4-d]pyrimidin-3-yl)benzyl)-5-fluoro-2-methoxybenzamide] are ≥ 7.60 and 7.30 to 7.60.

As to `COc1ccc(F)cc1C(=O)NCc1ccc(-c2nn(C3CCC(CO)OC3)c3c(=O)[nH]nc(N)c23)cc1` (single isomer, unassigned) [Example 47, N-(4-(4-amino-1-(6-(hydroxymethyl)tetrahydro-2H-pyran-3-yl)-7-oxo-6,7-dihydro-1H-pyrazolo[3,4-d]pyridazin-3-yl)benzyl)-5-fluoro-2-methoxybenzamide], the pIC50 in assay [1] and in assay [2] was 6.30 to 7.00 throughout.

In the case of `COc1ccc(F)cc1C(=O)NCc1ccc(-c2nn(C3CCC(CO)OC3)c3c(=O)[nH]nc(N)c23)cc1` (single isomer, unassigned) [Example 48, N-(4-(4-amino-1-(6-(hydroxymethyl)tetrahydro-2H-pyran-3-yl)-7-oxo-6,7-dihydro-1H-pyrazolo[3,4-d]pyridazin-3-yl)benzyl)-5-fluoro-2-methoxybenzamide], in assay [1], the pIC50 is 6.30 to 7.00. `COc1ccc(F)cc1C(=O)NCc1ccc(-c2nn([C@@H]3C=C[C@@H](O)C3)c3ncnc(N)c23)cc1` (single isomer, unassigned) [Example 49, trans-N-(4-(4-amino-1-(4-hydroxycyclopent-2-en-1-yl)-1H-pyrazolo[3,4-d]pyrimidin-3-yl)benzyl)-5-fluoro-2-methoxybenzamide]: the pIC50 in assay [1] was ≥ 7.60; in assay [2], 7.30 to 7.60.

Values taken from patent US20250179027A1, “CYCLOALKYL OR HETEROCYCLYL SUBSTITUTED HETEROARYL COMPOUND, AND COMPOSITION AND USE THEREOF” (Shenzhen TargetRx, Inc., priority 2022, published 2025).
